Results from patent US20010039287A1, “AROMATIC SULFONE HYDROXAMIC ACID METALLOPROTEASE INHIBITOR” (priority 1997, published 2001).
Counter-ions that a name gives are not always drawn. Like-named read-outs stand apart in the source and are kept apart here.

How the values were obtained:
[1] = design: AUC (0-∞): unit not given beside the values; details: for t½ Hour: Rat Intravenous 20 mpk
recombinant human MMP-1 = target: T1, recombinant human MMP-1 (Homo sapiens, UniProt P03956); experiment: biochemical
T1 construct: made in house; host or cells: transfected HT-1080 cells (provided by Dr. Harold Welgus, Washington University)
T1 sequence (P03956 100-469): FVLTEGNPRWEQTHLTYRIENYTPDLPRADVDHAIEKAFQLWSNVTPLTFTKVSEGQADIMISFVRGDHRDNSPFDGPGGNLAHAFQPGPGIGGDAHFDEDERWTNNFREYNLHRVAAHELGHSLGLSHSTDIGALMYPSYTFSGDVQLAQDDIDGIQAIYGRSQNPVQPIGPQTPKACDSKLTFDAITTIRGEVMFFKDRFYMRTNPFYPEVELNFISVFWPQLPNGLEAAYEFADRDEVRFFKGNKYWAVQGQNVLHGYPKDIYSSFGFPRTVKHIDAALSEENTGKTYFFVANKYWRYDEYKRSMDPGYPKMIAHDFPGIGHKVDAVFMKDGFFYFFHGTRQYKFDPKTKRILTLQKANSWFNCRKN

recombinant human MMP-13 = recombinant human MMP-13 (Homo sapiens, UniProt P45452); experiment: biochemical
recombinant human MMP-9 = recombinant human MMP-9 (Homo sapiens, UniProt P14780); experiment: biochemical
recombinant human MMP-2 = target: T2, recombinant human MMP-2 (Homo sapiens, UniProt P08253); experiment: biochemical
T2 sequence (P08253 110-660): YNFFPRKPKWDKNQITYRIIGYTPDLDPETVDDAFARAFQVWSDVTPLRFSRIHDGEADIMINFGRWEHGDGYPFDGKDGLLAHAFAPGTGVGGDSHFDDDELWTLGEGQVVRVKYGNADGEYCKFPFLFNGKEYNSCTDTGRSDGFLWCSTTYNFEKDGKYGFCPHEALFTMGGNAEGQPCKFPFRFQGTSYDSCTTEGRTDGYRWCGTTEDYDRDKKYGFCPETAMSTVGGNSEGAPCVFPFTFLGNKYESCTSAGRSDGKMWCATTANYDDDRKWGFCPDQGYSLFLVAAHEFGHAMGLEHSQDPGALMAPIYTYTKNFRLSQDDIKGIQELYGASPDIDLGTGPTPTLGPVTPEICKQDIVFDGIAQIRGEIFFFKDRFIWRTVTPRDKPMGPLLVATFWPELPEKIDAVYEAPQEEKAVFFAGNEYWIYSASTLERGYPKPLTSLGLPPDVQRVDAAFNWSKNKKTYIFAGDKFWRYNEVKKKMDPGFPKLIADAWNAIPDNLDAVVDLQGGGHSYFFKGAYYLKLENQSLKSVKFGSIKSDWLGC

[2] = Inhibition Table B, read-out: MMP-1 IC50
[3] = Inhibition Table B, read-out: MMP-13 IC50
[4] = Inhibition Table B, read-out: MMP-9 IC50
[5] = Inhibition Table B, read-out: MMP-2 IC50

Sequence of recombinant human MMP-9 (P14780 107-707 limits assumed): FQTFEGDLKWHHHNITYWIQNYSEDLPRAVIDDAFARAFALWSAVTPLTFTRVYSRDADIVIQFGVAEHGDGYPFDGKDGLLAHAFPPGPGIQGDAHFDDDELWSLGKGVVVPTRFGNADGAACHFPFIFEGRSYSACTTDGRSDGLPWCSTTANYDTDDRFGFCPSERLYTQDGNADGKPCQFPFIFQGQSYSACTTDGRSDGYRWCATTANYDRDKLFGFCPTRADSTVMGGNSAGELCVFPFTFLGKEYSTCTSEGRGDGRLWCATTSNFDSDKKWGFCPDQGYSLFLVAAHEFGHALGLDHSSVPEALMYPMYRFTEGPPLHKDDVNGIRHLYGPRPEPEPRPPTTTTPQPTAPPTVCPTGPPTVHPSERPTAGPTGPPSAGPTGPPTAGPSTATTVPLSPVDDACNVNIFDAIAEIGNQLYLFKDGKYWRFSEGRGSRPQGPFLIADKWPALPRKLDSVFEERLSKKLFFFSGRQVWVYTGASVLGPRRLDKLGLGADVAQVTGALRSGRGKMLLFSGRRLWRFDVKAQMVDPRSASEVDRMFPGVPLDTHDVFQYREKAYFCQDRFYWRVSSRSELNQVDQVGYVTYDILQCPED

Structure (SMILES)	t½ Hour [1] [h]	IC50 (recombinant human MMP-1; [2]) [nM]	IC50 (recombinant human MMP-13; [3]) [nM]	IC50 (recombinant human MMP-2; [5]) [nM]	other results
C#CCN1CCC(C(=O)NO)(S(=O)(=O)c2ccc(Oc3ccc(C(C)C)cc3)cc2)CC1.Cl [Example 414, N-hydroxy-4-[[4-[4-(1-methylethyl)phenoxy]phenyl]sulfonyl]-1-(2-propynyl)-4-piperidinecarboxamide, Monohdyrochloride]	0.73				
Cl.O=C(NO)C1(S(=O)(=O)c2ccc(Sc3ccncc3)cc2)CCOCC1 [Example 104, Tetrahydro-N-hydroxy-4-[[4-(4-pyridinylthio)phenyl]sulfonyl]-2H-pyran-4-carboxamide, Monohydrochloride]	0.66	> 10000	0.65	1.5	IC50 (recombinant human MMP-9; [4]): 42.8 nM
O=C(NO)C1(S(=O)(=O)c2ccc(Oc3ccc(C(F)(F)F)cc3)cc2)CCN(Cc2ccccn2)CC1 [Example 391, N-hydroxy-1-(2-pyridinylmethyl)-4-[[4-[4-(trifluoromethyl)phenoxy]phenyl]-sulfonyl]-4-piperidinecarboxamide, Dihydrochloride]	1.45				
Cc1cc(Oc2ccc(S(=O)(=O)C3(C(=O)NO)CCNCC3)cc2)ccc1Cl.Cl [Example 79]	1.82				
C#CCN1CCC(C(=O)NO)(S(=O)(=O)c2ccc(Oc3ccc(C)c(C)c3)cc2)CC1.Cl [Example 43, 4-[[4-(3,4-Dimethylphenoxyl)phenyl]sulfonyl]-N-hydroxy-1-(2-propynyl)-4-piperidinecarboxamide, Monhydrochloride]	0.82	7000	0.8	0.4	
Cl.O=C(NO)C1(S(=O)(=O)c2ccc(Oc3ccc4c(c3)OCCO4)cc2)CCN(C2CC2)CC1 [Example 408, 1-cyclopropyl-4-[[4-[(2,3-dihydro-1,4-benzodioxin-6-yl)oxy]phenyl]-sulfonyl]-N-hydroxy-4-piperidine-carboxamide, Monohydrochloride]	3.30				
COCCN1CCC(C(=O)NO)(S(=O)(=O)c2ccc(Oc3ccc(C(F)(F)F)cc3)cc2)CC1.Cl [Example 418, N-hydroxy-1-(2-methoxyethyl)-4-[[4-[4-(trifluoromethyl)-phenoxy]phenyl]sulfonyl}-4-piperidinecarboxamide, Monohydrochloride]	2.42				
O=C(NO)C1(S(=O)(=O)c2ccc(Oc3ccccc3)cc2)CCSCC1 [Example 109]	1.12	500	0.3	0.1	IC50 (recombinant human MMP-9; [4]): 0.7 nM
O=C(NO)C1(S(=O)(=O)c2ccc(Oc3ccccc3)cc2)CC[S+]([O-])CC1 (centres unmarked) [Example 111]	0.65	3700	1.3	0.5	
Cl.O=C(NO)C1(S(=O)(=O)c2ccc(Sc3ccccc3)cc2)CCN(C2CC2)CC1 [Example 32, 1-cyclopropyl-N-hydroxy-4-[[4-(phenylthio)phenyl]sulfonyl]-4-piperidine Carboxamide, Monohydrochloride]	1.03		0.2	0.1	IC50 (recombinant human MMP-1): > 10000 nM; IC50 (recombinant human MMP-9; [4]): 2.5 nM
Cl.O=C(NO)C1(S(=O)(=O)c2ccc(Oc3ccc(C(F)(F)F)cc3)cc2)CCN(C2CC2)CC1 [Example 427, 1-cyclopropyl-N-hydroxy-4-[[4-[4-(trifluoromethyl)phenoxy]phenyl]sulfonyl]-4-piperidinecarboxamide, Monohydrochloride]	2.85				
O=C(NO)C1(S(=O)(=O)c2ccc(Oc3ccccc3)cc2)CCN(C2CC2)CC1 [Example 17]					AUC (0-∞) ([1]; rat, in vivo): 37.10; Blood Level @ 3 min ([1]; rat, in vivo): 63.44 µg/mL; t1/2 ([1]; rat, in vivo): 0.74 h; BA ([1]; rat, in vivo, 20 mg/kg): 35.9%; BA % ([1]; rat, in vivo, 20 mg/kg): 35.9%; Blood Level @ 3 min ([1]; rat, in vivo, iv, 20 mg/kg): 63.44 µg/mL; IC50 (recombinant human MMP-1; Inhibition Table A, read-out: MMP-1 IC50): 400 nM; IC50 (recombinant human MMP-13): […]; IC50 (recombinant human MMP-9): […]; IC50 (recombinant human MMP-2; MMP-2 IC50 (nM)): 0.2 nM
COCCN1CCC(C(=O)NO)(S(=O)(=O)c2ccc(Oc3ccc(OC(F)(F)F)cc3)cc2)CC1.Cl [Example 416, N-hydroxy-1-(2-methoxyethyl)-4-[[4-[4-(trifluoromethoxy)phenoxy]phenyl]sulfonyl}-4-piperidinecarboxamide, Monohydrochloride]	2.94				
O=C(NO)C1(S(=O)(=O)c2ccc(Oc3ccc(C(F)(F)F)cc3)cc2)CCN(Cc2cccnc2)CC1 [Example 390, N-hydroxy-1-(3-pyridinylmethyl)-4-[[4-[4-trifluoromethyl)phenoxy]phenyl]-sulfonyl]-4-piperidinecarboxamide, Dihydrochloride]	1.50				
CCN1CCC(C(=O)NO)(S(=O)(=O)c2ccc(OCc3ccc(C(F)(F)F)cc3)cc2)CC1.Cl [Example 438, 1-ethyl-N-hydroxy-4-[[4-[[4-[trifluoromethyl)phenyl]methoxy]-phenyl]sulfonyl]-4-piperidine-carboxamide, Monohydrochloride]	2.14				
O=C(NO)C1(S(=O)(=O)c2ccc(Oc3ccc(SC(F)(F)F)cc3)cc2)CCOCC1 [Example 382, Tetrahydro-N-hydroxy-4-[[4-[4-[(trifluoromethyl)thio]phenoxy]phenyl]-sulfonyl]-2H-pyran-4-carboxamide]	1.71				
CC(=O)N1CCC(C(=O)NO)(S(=O)(=O)c2ccc(Oc3ccccc3)cc2)CC1 [Example 12]					AUC (0-∞) ([1]; rat, in vivo): 22.11; t1/2 ([1]; rat, in vivo): 0.86 h; Blood Level @ 3 min ([1]; rat, in vivo, iv, 20 mg/kg): 73.54 µg/mL; IC50 (recombinant human MMP-1): 464 nM; IC50 (recombinant human MMP-13): < 0.1 nM; IC50 (recombinant human MMP-2; MMP-2 IC50 (nM)): < 0.1 nM
C#CCN1CCC(C(=O)NO)(S(=O)(=O)c2ccc(Oc3ccc(Cl)c(C)c3)cc2)CC1.Cl [Example 81, 4-[[4-(4-chloro-3-methylphenoxy)phenyl]sulfonyl]-N-hydroxy-1-(2-propynyl)-4-piperidinecarboxamide, Monohydrochloride]	0.76	3300	0.3	0.1	
O=C(NO)C1(S(=O)(=O)c2ccc(Oc3ccc(Cl)cc3)cc2)CCOCC1 [Example 100, 4-[[4-(4-chlorophenoxy)-phenyl]sulfonyl]-tetrahydro-N-hydroxy-2H-pyran-4-carboxamide]	1.50				
Cl.O=C(NO)C1(S(=O)(=O)c2ccc(Oc3ccc(OC(F)(F)F)cc3)cc2)CCNCC1 [Example 410, N-hydroxy-4-[[4-[(trifluoromethoxy)phenoxy]phenyl]sulfonyl]-4-piperidinecarboxamide, Monohydrochloride]	1.78				
Cl.O=C(NO)C1(S(=O)(=O)c2ccc(Oc3ccc(-n4ccnc4)cc3)cc2)CCOCC1 [Example 99, tetrahydro-N-hydroxy-4-[[4-[4-(1H-imidazol-1-yl)phenoxy]phenyl]-sulfonyl]-2H-pyran-4-carboxamide, Monohydrochloride]	0.68	> 10000	1	0.4	
C#CCN1CCC(C(=O)NO)(S(=O)(=O)c2ccc(Oc3ccc(Cl)cc3)cc2)CC1 [Example 85, 4-[[4-(4-chlorophenoxy)-phenyl]sulfonyl]-N-hydroxy-1-(2-propynyl)-4-piperidinecarboxamide, Monohydrochloride]		500	< 0.1	< 0.1	IC50 (recombinant human MMP-9; [4]): 0.4 nM
O=C(NO)C1(S(=O)(=O)c2ccc(Oc3ccccc3)cc2)CCOCC1 [Example 94, Tetrahydro-N-hydroxy-4-[(4-phenoxyphenyl)sulfonyl]-2H-pyran-4-carboxamide]	1.71		< 0.1	< 0.1	
O=C(NO)C1(S(=O)(=O)c2ccc(Sc3ccc(O)cc3)cc2)CCSCC1 [Example 114]		3000	0.4	0.65	IC50 (recombinant human MMP-9; [4]): 31.6 nM
O=C(NO)C1(S(=O)(=O)c2ccc(Oc3ccc(C(F)(F)F)cc3)cc2)CCN(CCN2CCOCC2)CC1 [Example 388, N-hydroxy-1-[2-(4-morpholinyl)-ethyl]-4-[[4-[4-(trifluoromethyl)phenoxy]-phenyl]sulfonyl]-4-piperidinecarboxamide, Dihydrochloride]	0.94				
